Experimental data published in US20230277613A1, “Polysaccharide-Rich Bombax Costatum Flower Extract” (priority 2020, published 2023).
Marks after values point to notes of the source that are not given here.

What was measured:
[1] = test system: Staphylococcus epidermidis (ATCC 12228); experiment: In vitro sniff test and viability in reconstituted sweat, S. epidermidis; assay type: cell-based; set-up: key to Odor (Sniff) 6 h / Odor (Sniff) 24 h: 1. Absent (comparable to 0.1% chlorhexidine positive control); 2. Moderate; 3. Intense (bacteria-specific olfactory signature); settings: 0.1% (BCP or chlorhexidine digluconate)
Method: (§1) Staphylococcus epidermidis (ATCC 12228) and Corynebacterium striatum (ATCC 6940) strains were used. Each of these strains has a typical olfactory signature, the result of the metabolism of sweat components: • S. epidermidis: Valeric and propionic acid; • C. striatum: Sulphanyl alcohols. Each bacterial strain was inoculated into a reconstituted sweat solution in the presence of the BCP extract at 0.1%; 0.6% or 2% or 0.1% chlorhexidine digluconate (positive control). After 6 h and 24 h of incubation: The bacterial viability was evaluated by bacterial count expressed in CFU/ml. A sniff test was carried out to determine the olfactory signature qualitatively and semi-quantitatively (intensity of the smell) immediately after opening the vial, the smell was evaluated and scored by a trained operator: • 1. […] Moderate • 3. Intense (bacteria-specific olfactory signature)

[2] = test system: Corynebacterium striatum (ATCC 6940); experiment: In vitro sniff test and viability in reconstituted sweat, C. striatum; assay type: cell-based; set-up: key to Odor (Sniff) 6 h / Odor (Sniff) 24 h: 1. Absent (comparable to 0.1% chlorhexidine positive control); 2. Moderate; 3. Intense (bacteria-specific olfactory signature); settings: 0.1% (BCP or chlorhexidine digluconate)
Method: as §1

[3] = test system: IL1α (interleukin 1α); experiment: IL1-alpha produced by NHKs under PMA stress (ELISA); assay type: cell-based, human
Method: (§2) Normal Human Keratinocytes (NHK) were treated for 24 hours at 37° C. with the Bombax costatum Polysaccharide extract according to Example 1 (called BCP extract) at 0.01% and/or 0.05% of dry matter (DM) or by Dexamethasone or Indomethacin at 10^-7M (anti-inflammatory reference molecules). The cells were then treated by adding PMA at 10 μg/ml (Phorbol Myristate Acetate, inflammation-inducing agent) for 16 hours at 37° C. At the end of the treatment, the quantities of IL1α (interleukin 1α), PGE2 (Prostaglandin-E2), IL1β (Interleukin 1β), TNFα (Tumor Necrosis Factor α), IL6 (Interleukin 6) and IL8 (Interleukin 8) secreted were measured by the ELISA technique in the culture supernatants.
(§3) The significance of the results was assessed by a one-way analysis of variance followed by a Tuckey test.

[4] = test system: IL1β (Interleukin 1β); experiment: IL1-beta produced by NHKs under PMA stress (ELISA); assay type: cell-based, human
Method: as §2, §3

[5] = test system: IL6 (Interleukin 6); experiment: IL6 produced by NHKs under PMA stress (ELISA); assay type: cell-based, human
Method: as §2, §3

[6] = test system: IL8 (Interleukin 8); experiment: IL8 produced by NHKs under PMA stress (ELISA); assay type: cell-based, human
Method: as §2, §3

[7] = test system: TNFα (Tumor Necrosis Factor α); experiment: TNF-alpha produced by NHKs under PMA stress (ELISA); assay type: cell-based, human
Method: as §2, §3

[8] = test system: PGE2 (Prostaglandin-E2); experiment: PGE2 produced by NHKs under PMA stress (ELISA); assay type: cell-based, human
Method: as §2, §3

[9] = test system: hBD2; experiment: hBD2 gene expression in keratinocytes (real-time quantitative RT-PCR); assay type: cell-based, human; settings: IL1β 100 ng/ml
Method: (§4) Normal human epidermal keratinocytes were treated for 24 or 48 hours with BCP extract or IL1β at 100 ng/ml (positive reference). At the end of the treatment, the gene expression of hBD2, hBD3 and TLR2 was analyzed by real-time quantitative RT-PCR.

[10] = test system: hBD3; experiment: hBD3 gene expression in keratinocytes (real-time quantitative RT-PCR); assay type: cell-based, human; settings: IL1β 100 ng/ml
Method: as §4

[11] = test system: TLR2; experiment: TLR2 gene expression in keratinocytes (real-time quantitative RT-PCR); assay type: cell-based, human; settings: IL1β 100 ng/ml
Method: as §4

[12] = test system: hBD2; experiment: Intracellular hBD2 production in keratinocytes (ELISA); assay type: cell-based, human; settings: IL1β 100 ng/ml
Method: (§5) Normal human epidermal keratinocytes were treated for 24 or 48 hours with BCP extract or IL1β at 100 ng/ml (positive reference). Moreover, the quantities of TLR2 and intracellular hBD2 were measured by ELISA.

[13] = test system: TLR2; experiment: TLR2 production in keratinocytes (ELISA); assay type: cell-based, human; settings: IL1β 100 ng/ml
Method: as §5

[14] = Dexamethasone 0.1 μM 24 hours, then PMA 10 μg/ml 16 hours
[15] = Dexamethasone 0.1 μM, vs PMA 10 μg/ml

[H]/N=C(\N/C(=N/[H])NCCCCCCNC(=N)NC(=N)Nc1ccc(Cl)cc1)Nc1ccc(Cl)cc1 [Chlorhexidine, chlorhexidine digluconate]
Viability 24 h ([1]; control 8.69 ± 0.09): 0.00 ± 0.00 Log10 CFU/ml | Viability 6 h ([1]; control 8.91 ± 0.21): 0.00 ± 0.00 Log10 CFU/ml | Odor (Sniff) 6 h ([1]; control Intense): Absent | Odor (Sniff) 24 h ([1]; control Intense): Absent | Viability 6 h ([2]; control 8.51 ± 0.08): 0.00 ± 0.00 Log10 CFU/ml | Viability 24 h ([2]; control 8.64 ± 0.19): 0.00 ± 0.00 Log10 CFU/ml | Odor (Sniff) 6 h ([2]; control Moderate): Absent | Odor (Sniff) 24 h ([2]; control Moderate): Intense

C[C@@H]1C[C@H]2[C@@H]3CCC4=CC(=O)C=C[C@]4(C)[C@@]3(F)[C@@H](O)C[C@]2(C)[C@@]1(O)C(=O)CO [Dexamethasone]
IL1α Average [3, 14]: 230.583 pg/mL | IL1α Evolution [3, 15]: −38% | IL1β Average [4, 14]: 34.410 pg/mL | IL1β Evolution [4, 15]: −32% | IL6 Average [5, 14]: 2.090 pg/mL | IL6 Evolution [5, 15]: −70% | IL8 Average [6, 14]: 4076.675 pg/mL | IL8 Evolution [6, 15]: −59 | TNFα Average [7, 14]: 16.216 pg/mL | TNFα Evolution [7, 15]: −52% | PGE2 Average [8, 14]: 39.000 pg/mL | PGE2 Evolution [8, 15]: −94%

IL1β: IL1β at 100 ng/ml (positive reference)
hBD2 RQ ([9]; 24 or 48 hours, control 1.12): 3480.89 | hBD2 Evolution ([9]; vs Control): ×3000 *** | hBD3 RQ ([10]; 24 or 48 hours, control 1.09): 9.04 | hBD3 Evolution ([10]; vs Control): +730% *** | TLR2 RQ ([11]; 24 or 48 hours, control 1.08): 3.26 | TLR2 Evolution ([11]; vs Control): +201% *** | hBD2 intracellular protein ([12]; 24 or 48 hours, control 141.5 ± 15.2): 2162.7 ± 51.1 pg/mL | hBD2 protein Evolution ([12]; vs Control): +1428% *** | TLR2 protein ([13]; 24 or 48 hours, control 735.9 ± 39.2): 913.7 ± 30.5 pg/mL | TLR2 protein Evolution ([13]; vs Control): +24% **
